For data set [1] the following is noted: compared with scopolamine, cited from earlier work.
The subject of another data set is bacteria. The data set is described as follows: antimicrobial / antibacterial effectiveness of glycopyrrolate alone and as enhancer. It is filed as cell-based. The source says:
Although this incorporation alone is not sufficient to destroy the bacteria, this makes them more susceptible to attack by antibacterial substances (deodorizing/antiperspirant agents) which can pass through or even destroy the membrane due to the impaired membrane integrity.

This is an account of results in patent US8343467B2 (Beiersdorf AG, priority 2004, dated 2013).

Structures are written as SMILES.

Consider `C[N+]1(C)CC[C@@H](OC(=O)[C@@](O)(c2ccccc2)C2CCCC2)C1` (relative stereo) [Glycopyrrolate, (±)-(R*)-3-[(S*)-(cyclopentyl hydroxyphenylacetoxy]-1,1-dimethylpyrrolidiniumbromide], for which the “penetration of biological membranes” value in data set [1] was “penetrates biological membranes more slowly”. The side effects entry in data set [1] (topical) is recorded as “fewer side effects than scopolamine”. Besides, the antimicrobial effectiveness result in the data set on bacteria (glycopyrrolate alone) is given as “no or only slight antimicrobial effectiveness”. Besides, the antibacterial effect result with bacteria (glycopyrrolate alone in the formulations used) is “does not show any antibacterial effect”.
